Data from article PMC9016878 (ACS Omega, 2022).

How the values were obtained:
[1] = biological target: α-glucosidase from Saccharomyces cerevisiae; assay: α-glucosidase inhibition; format: biochemical; conditions: read-out: Inhibitory activity (IC50) on α-glucosidase; mean ± SD; pNPG substrate, pH 6.8, 37 °C
[2] = biological target: T1, lipase from porcine pancreas (Sus scrofa, UniProt P00591); assay: pancreatic lipase inhibition; format: biochemical
T1 sequence (P00591 1-450): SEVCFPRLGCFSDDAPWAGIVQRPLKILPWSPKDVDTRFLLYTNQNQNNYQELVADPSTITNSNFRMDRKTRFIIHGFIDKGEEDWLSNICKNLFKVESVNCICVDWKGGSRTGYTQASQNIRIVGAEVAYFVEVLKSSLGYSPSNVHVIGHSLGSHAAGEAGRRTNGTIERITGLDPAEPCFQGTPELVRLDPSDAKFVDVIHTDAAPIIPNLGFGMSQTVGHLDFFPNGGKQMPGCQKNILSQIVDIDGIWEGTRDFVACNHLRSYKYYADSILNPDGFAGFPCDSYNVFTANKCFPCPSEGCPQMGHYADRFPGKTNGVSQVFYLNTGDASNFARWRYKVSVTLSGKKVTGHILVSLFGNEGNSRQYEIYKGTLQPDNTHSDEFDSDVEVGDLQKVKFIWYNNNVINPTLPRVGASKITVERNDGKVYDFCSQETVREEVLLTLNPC

[3] = biological target: T2, porcine pancreatic amylase (Sus scrofa, UniProt P00690); assay: biochemical
T2 sequence (P00690 16-511): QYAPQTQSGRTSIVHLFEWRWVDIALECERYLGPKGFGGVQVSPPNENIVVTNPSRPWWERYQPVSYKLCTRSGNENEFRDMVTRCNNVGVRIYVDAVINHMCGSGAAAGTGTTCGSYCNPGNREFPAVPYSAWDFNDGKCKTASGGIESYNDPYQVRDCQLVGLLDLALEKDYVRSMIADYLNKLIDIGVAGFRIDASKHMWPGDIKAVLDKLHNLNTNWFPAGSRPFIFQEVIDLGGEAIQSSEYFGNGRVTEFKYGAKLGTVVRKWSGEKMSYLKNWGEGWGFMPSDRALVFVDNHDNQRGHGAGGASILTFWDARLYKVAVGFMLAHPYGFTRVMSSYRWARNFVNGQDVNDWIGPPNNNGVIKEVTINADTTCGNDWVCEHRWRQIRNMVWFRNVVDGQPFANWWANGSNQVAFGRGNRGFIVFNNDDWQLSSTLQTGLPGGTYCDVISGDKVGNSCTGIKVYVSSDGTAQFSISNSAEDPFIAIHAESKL

SMILES | IC50 [1] [µM] | IC50 [2] [µM] | IC50 [3] [µM]
C[C@@H]1CC[C@]2(C(=O)O)CC[C@]3(C)C(=CC[C@@H]4[C@@]5(C)[C@H](O)C(=O)[C@H](O)C(C)(C)[C@@H]5CC[C@]43C)[C@@H]2[C@]1(C)O [compound 7, 1-hydroxy-2-oxopomolic acid] | 192 ± 13.8 | – | –
C[C@@H]1CC[C@]2(C(=O)O)CC[C@]3(C)C(=CC[C@@H]4[C@@]5(C)CC[C@H](O)C(C)(C)[C@@H]5CC[C@]43C)[C@@H]2[C@]1(C)O [compound 13, pomolic acid] | 85.5 ± 6.87 | 458 ± 72.8 | 142 ± 6.15
CC[C@H](CC[C@@H](C)[C@H]1CC[C@H]2[C@@H]3CC=C4C[C@@H](O[C@@H]5O[C@H](CO)[C@@H](O)[C@H](O)[C@H]5O)CC[C@]4(C)[C@H]3CC[C@]12C)C(C)C [compound 14, β-sitosterol glucoside] | – | – | 113 ± 3.51
